Measured values reported in patent US6773702B2, “Use of combretastatin A4 and its prodrugs as an immune enhancing therapy” (OXiGENE, Inc., priority 2000, dated 2004).

How the values were obtained:
[1] = system: spleen cells of H1D2-WT tumor-bearing rat; experiment: In vitro proliferative response of spleen cells from a tumor-bearing rat treated with CA4 plus immunotherapy (FIG. 4); type: in vivo; conditions: for T cell proliferative response: CA4 2 mg/kg + active immunotherapy
Description: FIG. 4 illustrates the enhanced in vitro immune proliferative response (cpm) of spleen cells isolated from (H1D2-WT) a tumor-bearing rat previously treated in vivo with a combination of active immunomodulatory therapy and CA4 (2 mg/kg, 6 days a week). Spleen cells were tested 9 weeks after tumor inoculation when tumor sizes was 0.9 cm^3. LO signifies spleen cells containing adherent macrophages, whereas L1 represents the same population depleted of adherent macrophages. A subset of each cell sample was treated with either medium (Med) or L-NAME (1.5 mg/ml).
While the anti-tumor properties of CA4 and CA4P are very different, the present invention embraces the discovery that a low dose of either compound is capable of enhancing the immune responsiveness of a tumor host. FIG. 4 illustrates the in vitro immune proliferation of spleen cells isolated from a tumor-bearing rat previously subjected to treatment with a combination of CA4 (2 mg/kg) and active immunotherapy. The rat was killed 9 weeks after initiation of intrahepatic tumor growth, at which point the tumor had grown to a size of 0.9 cm^3. Control rats receiving immunotherapy alone were euthanized 5 weeks earlier due to the development of large tumor burdens (>5 cm3).
A tumor-bearing rat (H1D1-WT) was treated in vivo with weekly immunizations of IL-18 transfected tumor cells (H1D1-IL-18), in addition to CA4 treatment (2 mg/kg) 6 days a week. Due to the inherent insolubility of CA4, […] (0.9 cm^3 tumor) following […] of growth, at which point the untreated control rats were all dead with large tumor burdens (>5 cm^3) and would not be expected to show an immune response at such a late stage. Both unseparated spleen cells (L0) and nonadherent spleen cells (L1), depleted of most macrophages by plastic adherence (as in Example 2), were tested for a proliferative response to H1D2-IL18 tumor stimulator cells in the absence or presence of the NO-synthase inhibitor L-NAME.

[2] = system: BN7005-H1D2 colon cancer cells; experiment: Comparison of CA4 and CA4P on BN7005-H1D2 tumor growth, alone or with vaccination (FIG. 5); type: in vivo, rat
Description: FIGS. 5A AND 5B illustrate a comparison of the therapeutic effect of Combretastatin A4 and Combretastatin A4 Prodrug (2 mg/kg) on tumor growth (BN7005-H1D2) in vivo as a sole therapy or in combination with therapeutic vaccination (IL-18 tumor transfectants). Results are represented as mean tumor volume (FIG. 5A) or as median tumor volume (FIG. 5B) 31 days after tumor initiation.
A comparison was also made of relative effect of CA4 and CA4P administration in vivo with regard to tumor inhibitory effects when used as sole therapy and when combined with immunomodulatory gene therapy. […] A subset of these animals were subjected to regular vaccinations autologous IL-18 and IL-12-transfected tumor cells, respectively.
A comparison has been made of the effect of CA4 and CA4 prodrug with regard to tumor inhibitory effects when used as sole therapy and when combined with immunomodulatory gene therapy. As represented in FIG. 5, wild-type (BN7005-H1D2) colon cancer cells were inoculated intrahepatically and treatment with CA4 and CA4P began on day 7 (2 mg/kg 6 days a week), when the tumors were macroscopically visible. On day 9, 16 and 23, vaccinations occurred using BN7005-H1D2 cells transfected with ILI8 and IL-12, respectively.

[3] = cited from earlier work
[4] = system: colon carcinoma H1D2-WT cells; experiment: Intrahepatic growth of colon carcinoma H1D2-WT, tumor volume after 4 weeks (Table 2); type: in vivo, rat; conditions: no CA4-P; L-NAME gavage; with immunization
Description: Table 2 is a summary of intrahepatic growth of colon carcinoma H1D2-WT cells treated with low dose CA4P alone or in combination with immunomodulatory gene therapy, and with or without additional inhibitor. Tumor growth was initiated by inoculation beneath the liver capsule with 1×10^5 in vitro cultured BN7005-H1D2 wild type cells suspended in 50 μl RPMI medium. Drug administration (CA4P, L-NAME, Indomethacin) was initiated after 7-8 days when the tumor was macroscopically visible. CA4P was given intraperitoneally, 5 days a week. L-NAME was given by gavage twice a week on the day of immunization and the day after. Indomethacin was given by gavage 48 h after vaccination at a dose of 0.33 mg/kg. Immunization was performed by intraperitoneal administration on day 10 and day 17 using BN7005-H1D2 cells transfected with IL-18 or a mixture of IL-18 and IL-12 transfectants (2-3×10^6 viable cells per rat).
Wild-type (BN7005-H1D2) colon cancer cells (1×10^5 cells) were inoculated intrahepatically and CA4P drug treatment (2 and 5 mg/kg) began daily when the tumors were macroscopically visible. On day 10 and 17, vaccinations were administered intraperitoneally using […] cells transfected with IL-18 transfected cells or mixtures of IL-18 and IL-12 transfected cells (2-3×10^6 viable cells per rat). L-NAME and Indomethacin were also administered by gavage 48 h after vaccination at a dose of 0.33 mg/kg.

[5] = system: BN7005-H1D2 colon cancer cells; experiment: Tumor growth with IL-18/IFN-γ vaccination plus CA4P and/or L-NAME (FIG. 6); type: in vivo, rat; conditions: L-NAME by gavage 48 mg/rat + vaccination with IL-18/IFN-γ producing tumor cells
Description: FIG. 6 illustrates enhancement of the therapeutic effect of vaccination with IL-18/IFN-γ producing tumor transfectant […] cells by concurrent treatment with low dose combretastatin-A4 prodrug and/or L-NAME. Mean tumor volume±SEM is indicated. Significance of differences compared to the PBS control was evaluated by the Student's t test.
Four groups of 6 rats each were inoculated intrahepatically with 1×10^5 wild type colon cancer cells (BN7005-H1D2) on day 0. Drug treatment was initiated on day 7, when the tumor was macroscopically visible as a small nodule, and was repeated 5 days a week. CA4-P was administered i.p. at a dose of 5 mg/kg and L-NAME by gavage at a dose of 48 mg/rat. Vaccination was given twice i.p. on day 10.and 17 with 2×10^6 tumor cells producing IL-18 and IFN-γ, respectively. No drug treatment was given on the day of vaccination and the day after. On day 28 all animals were laparotomized and tumor diameters measured (the longest diameter (a) and the one perpendicular to the first (b) and tumor volume calculated according to the formula 0.4×a×b×b.
Referring to FIG. 6, wild-type (BN7005-H1D2) colon cancer cells were inoculated intrahepatically and combretastatin A4 prodrug treatment began daily on day 7 when the tumors were macroscopically visible. L-NAME, a well known NO inhibitor and effective antitumor agent, was also administered daily. On day 10 and 17 vaccination occurred using BN7005-H1D2 cells transfected with IL-18/IFN-gamma. […] One likely explanation was that both L-NAME and Combretastatin A4 were doing the same thing; i.e. inhibiting the production of proinflammatory cytokines that cause immune suppression.

SMILES | Tumor size ([1]; 9 weeks after initiation of intrahepatic tumor growth, CA4 2 mg/kg + active immunotherapy (controls >5 cm3)) [cm^3] | T cell proliferative response ([1]; non-adherent T cells (L1), 9 weeks) | T cell proliferative response ([1]; unseparated spleen cells (L0) in the presence of L-NAME in vitro) | T cell proliferative response ([1]; unseparated spleen cells (L0), 9 weeks after tumor initiation) [cpm] | Tumor inhibitory effect ([2]; 2 mg/kg 6 days a week as sole therapy) | Tumor inhibitory effect ([2]; 2 mg/kg combined with vaccination (IL-18 and IL-12 transfected tumor cells)) | Solubility in water [3] | Tumor volume after 4 weeks, Mean [4] [mm^3] | Tumor volume after 4 weeks, Median [4] [mm^3] | Enhancement of immune stimulated gene therapy [5]
COc1ccc(/C=C\c2cc(OC)c(OC)c(OC)c2)cc1O [CA4, Combretastatin A4] | 0.9 | 86,000 cpm | 44,000 cpm | 9000 | no significant effect as sole therapy | significant tumor inhibitory effects | very limited |  |  | 
COC(=O)[C@@H](N)CCCNC(=N)N[N+](=O)[O-] [L-NAME, reference compound] |  |  |  |  |  |  |  | 1285 | 879 | effective enhancers of immune stimulated gene therapy
